Assay results as given in ChEMBL document CHEMBL4350975, “Assessment of quinazolinone derivatives as novel non-nucleoside hepatitis B virus inhibitors” (Eur J Med Chem, 2019).

Experiments:
[1] = Cytotoxicity against human HepG2.2.15 cells assessed as cell viability measured after 72 hrs by MTT assay; type: cell-based, HepG2 2.2.15
[2] = target: Core antigen (Hepatitis B virus) (UniProt Q03732); assay: Inhibition of capsid protein in Hepatitis B virus infected in human HepG2.2.15 cells assessed as reduction in viral DNA level supplemented with fresh medium containing compound every 2 days and measured after 6 days by RT-PCR analysis relative to control; type: cell-based; parameters: concentration or dose not given beside the values; conditions: concentration not given here
[3] = target: Core antigen (Hepatitis B virus) (UniProt Q03732); assay: Inhibition of capsid protein in wild type Hepatitis B virus infected in human HepG2.2.15 cells assessed as reduction of viral DNA level at 10 uM measured after 72 hrs by PCR analysis relative to control; type: cell-based
[4] = target: Core antigen (Hepatitis B virus) (UniProt Q03732); assay: Inhibition of capsid protein in lamivudine/entecavir-resistant Hepatitis B virus harboring rtL180M/rtM204V/rt184L mutant infected in human HepG2.2.15 cells assessed as reduction in viral DNA level at 10 uM measured after 72 hrs by PCR analysis relative to control; type: cell-based
[5] = Selectivity index, ratio of CC50 for human HepG2.2.15 cells to IC50 for capsid protein in Hepatitis B virus infected in human HepG2.2.15 cells assessed as reduction in viral DNA level; type: toxicity, cell-based; conditions: read-out: Ratio CC50/IC50
[6] = Selectivity index, ratio of CC50 for human HepG2.2.15 cells to IC50 for capsid protein in lamivudine/entecavir-resistant Hepatitis B virus harboring rtL180M/rtM204V/rt184L mutant infected in human HepG2.2.15 cells assessed as reduction in viral DNA level; type: toxicity, cell-based; conditions: read-out: Ratio CC50/IC50
[7] = target: Core antigen (Hepatitis B virus) (UniProt Q03732); assay: Inhibition of capsid protein in wild type Hepatitis B virus infected in human HepG2.2.15 cells assessed as reduction of viral DNA level at 4 uM measured after 72 hrs by PCR analysis relative to control; type: cell-based
[8] = target: Core antigen (Hepatitis B virus) (UniProt Q03732); assay: Inhibition of capsid protein in lamivudine/entecavir-resistant Hepatitis B virus harboring rtL180M/rtM204V/rt184L mutant infected in human HepG2.2.15 cells assessed as reduction in viral DNA level at 4 uM measured after 72 hrs by PCR analysis relative to control; type: cell-based
[9] = target: Core antigen (Hepatitis B virus) (UniProt Q03732); assay: Inhibition of capsid protein in lamivudine/entecavir-resistant Hepatitis B virus harboring rtL180M/rtM204V/rt184L mutant infected in human HepG2.2.15 cells assessed as reduction in viral DNA level at 100 uM measured after 72 hrs by PCR analysis relative to control; type: cell-based
[10] = target: Core antigen (Hepatitis B virus) (UniProt Q03732); assay: Inhibition of capsid protein in wild type Hepatitis B virus infected in human HepG2.2.15 cells assessed as reduction in viral DNA level at 100 uM measured after 72 hrs by PCR analysis relative to control; type: cell-based

Sequence of Core antigen (Hepatitis B virus) (Q03732 as listed by the source): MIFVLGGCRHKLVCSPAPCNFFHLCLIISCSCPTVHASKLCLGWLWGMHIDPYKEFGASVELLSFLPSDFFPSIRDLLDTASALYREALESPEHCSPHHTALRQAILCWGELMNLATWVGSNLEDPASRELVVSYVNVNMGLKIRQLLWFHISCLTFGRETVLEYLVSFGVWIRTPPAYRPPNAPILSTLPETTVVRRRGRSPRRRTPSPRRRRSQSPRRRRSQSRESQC

With `COc1ccc(C(C)=O)cc1CSc1nc2ccc(Br)cc2c(=O)n1Cc1cccs1` the CC50 at 72 h [1] was over 100 µM and the inhibition [2] was 46%.
Work on `O=c1c2cc(I)ccc2nc(SCc2ccccc2)n1Cc1cccs1` yielded a CC50 at 72 h [1] of over 100 µM and an inhibition [2] of 1.87%.
For `COc1ccccc1CSc1nc2ccc(OCCN(C)C)cc2c(=O)n1Cc1cccs1`, the CC50 at 72 h [1] was 14.7 µM and the inhibition [2] was 53.9%.
`COc1ccccc1CSc1nc2ccc(C)cc2c(=O)n1Cc1cccs1` gave a CC50 at 72 h [1] of over 100 µM and an inhibition [2] of 69.4%.
For `COc1ccc(C(C)=O)cc1CSc1nc2ccc(C)cc2c(=O)n1Cc1cccs1`, the CC50 at 72 h [1] was over 100 µM and the inhibition [2] was 56.1%.
Compound `C=C1[C@H](CO)[C@@H](O)C[C@@H]1n1cnc2c(=O)[nH]c(N)nc21` has an inhibition [3] of 98.1% and an inhibition [4] of 22.6%.
In the case of `COc1ccc(C(C)=O)cc1CSc1nc2ccc(I)cc2c(=O)n1Cc1cccs1`, the CC50 at 72 h [1] is reported as 81.1 µM and the inhibition [2] is reported as 45.4%.
For `COc1ccccc1CSc1nc2ccc(F)cc2c(=O)n1Cc1cccs1`, the CC50 at 72 h [1] was over 100 µM, the selectivity ratio [5] was over 40.5 and the inhibition [2] was 79.6%.
In the case of `O=c1c2cc(O)ccc2nc(SCc2ccccc2)n1Cc1cccs1`, the CC50 at 72 h [1] is reported as over 100 µM and the inhibition [2] is reported as 5.62%.
In the case of `COc1ccc(C(C)=O)cc1CSc1nc2ccc(F)cc2c(=O)n1Cc1cccs1`, the CC50 at 72 h [1] is reported as 89 µM and the inhibition [2] is reported as 30.7%.
Compound `O=c1c2ccccc2nc(SCc2ccccc2)n1Cc1cccs1` has a CC50 at 72 h [1] of over 100 µM and an inhibition [2] of 11%.
`COc1ccccc1CSc1nc2ccc(Cl)cc2c(=O)n1Cc1cccs1` gave a CC50 at 72 h [1] of over 100 µM and an inhibition [2] of 63.3%.
`COc1ccccc1CSc1nc2ccccc2c(=O)n1Cc1cccs1` gave a CC50 at 72 h [1] of over 100 µM, a selectivity ratio [5] of over 35.6 and an inhibition [2] of 76.3%.
`COc1ccccc1CSc1nc2ccc(I)cc2c(=O)n1Cc1cccs1` showed a CC50 at 72 h [1] of over 100 µM and an inhibition [2] of 65.9%.
Work on `O=c1c2cc(F)ccc2nc(SCc2ccccc2)n1Cc1cccs1` yielded a CC50 at 72 h [1] of over 100 µM and an inhibition [2] of 9.53%.
In the case of `COc1ccc(C(C)=O)cc1CSc1nc2ccccc2c(=O)n1Cc1cccs1`, the CC50 at 72 h [1] is reported as 71.5 µM, the selectivity ratio [5] is reported as 17.6 and the inhibition [2] is reported as 47.1%.
Compound `COc1ccc(C(C)=O)cc1CSc1nc2ccc(O)cc2c(=O)n1Cc1cccs1` has a CC50 at 72 h [1] of over 100 µM and an inhibition [2] of 3.26%.
`COc1ccccc1CSc1nc2ccc(Br)cc2c(=O)n1Cc1cccs1` gave a CC50 at 72 h [1] of over 100 µM and an inhibition [2] of 64.2%.
`COc1ccc(C(C)=O)cc1CSc1nc2ccc(OCCN(C)C)cc2c(=O)n1Cc1cccs1` gave a CC50 at 72 h [1] of 18 µM and an inhibition [2] of 33.9%.
For `CCN(CC)CCOc1ccc2nc(SCc3ccccc3OC)n(Cc3cccs3)c(=O)c2c1`, the CC50 at 72 h [1] was 10.1 µM, the selectivity ratio [5] was 5.25 and the inhibition [2] was 76%.
`O=c1c2cc(Br)ccc2nc(SCc2ccccc2)n1Cc1cccs1` gave a CC50 at 72 h [1] of over 100 µM and an inhibition [2] of 16.7%.
With `Cc1ccc2nc(SCc3ccccc3)n(Cc3cccs3)c(=O)c2c1` the CC50 at 72 h [1] was over 100 µM and the inhibition [2] was 13.8%.
For `COc1ccc(C(C)=O)cc1CSc1nc2ccc(Cl)cc2c(=O)n1Cc1cccs1`, the CC50 at 72 h [1] was 74.6 µM and the inhibition [2] was 40.7%.
With `CCN(CC)CCOc1ccc2nc(SCc3ccccc3)n(Cc3cccs3)c(=O)c2c1` the selectivity ratio [6] was 21.4, the inhibition [7] was 96.1% and the CC50 at 72 h [1] was 15.8 to 18 µM. The inhibition [8] was 94%, the selectivity ratio [5] was 22.2 and the inhibition [2] was 98.4%.
For `COc1ccccc1CSc1nc2ccc(O)cc2c(=O)n1Cc1cccs1`, the CC50 at 72 h [1] was over 100 µM and the inhibition [2] was 0.59%.
`Nc1ccn([C@@H]2CS[C@H](CO)O2)c(=O)n1` [LAMIVUDINE] showed an inhibition [9] of 17.7%, a selectivity ratio [6] of under 1 and an inhibition [10] of 90.7%. The CC50 at 72 h [1] was over 100 µM, the selectivity ratio [5] was over 1000 and the inhibition [2] was 94.3%.
Compound `CN(C)CCOc1ccc2nc(SCc3ccccc3)n(Cc3cccs3)c(=O)c2c1` has a selectivity ratio [6] of 14.1, an inhibition [7] of 82% and a CC50 at 72 h [1] of 21.1 to 26.7 µM. The inhibition [8] was 80.9%, the selectivity ratio [5] was 13.7 and the inhibition [2] was 83.3%.
With `O=c1c2cc(Cl)ccc2nc(SCc2ccccc2)n1Cc1cccs1` the CC50 at 72 h [1] was over 100 µM and the inhibition [2] was 16.1%.
Work on `CCN(CC)CCOc1ccc2nc(SCc3cc(C(C)=O)ccc3OC)n(Cc3cccs3)c(=O)c2c1` yielded a CC50 at 72 h [1] of 8.76 µM and an inhibition [2] of 42%.
